{"source": "patent US8044018B2", "about": "“Reagents and methods for smooth muscle therapies” (Arizona Board of Regents, priority 2008, dated 2011)", "key": {"rabbit aorta": {"tested_on": "rabbit aorta", "assay": "Muscle bath: rabbit aorta rings pre-contracted with norepinephrine, endothelium not denuded", "conditions": "pre-contracted with norepinephrine 10^−7 M; for relaxation and inhibition of spasm: peptides retained the Fmoc moiety", "procedure": "Rings of rabbit aorta in which the endothelium was not denuded, were suspended in a muscle bath containing bicarbonate buffer (120 mM NaCl, 4.7 mM KCl, 1.0 mM MgSO4, 1.0 mM NaH2PO4, 10 mM glucose, 1.5 mM CaCl2, and 25 mM […], pH 7.4), equilibrated with 95% O2/5% CO2, at 37° C. at one gram of tension for 2 hours. The rings were pre-contracted with norepinephrine (10^−7 M) and treated with RRRRRRApSAPLP (SEQ ID NO:309) or RRRRWLRRApSAPLP (SEQ ID NO:310). […] The peptides used were prepared by Fmoc-based peptide synthesis, and the peptides retained the Fmoc moiety at the amino terminus of the peptide."}, "Mesangial cells [1]": {"tested_on": "Mesangial cells", "assay": "Wrinkle assay: mesangial cells transfected with GFP, WT HSP20 or S16A-HSP20, on silicone rubber substrata", "format": "cell-based", "conditions": "dibutyryl cAMP 10 ΦM, 0-90 minutes", "procedure": "The experiment was performed in the following fashion: Mesangial cells were transfected with vectors containing green fluorescent protein (GFP) alone, GFP fused to the 5′ end of the wild type cDNA for HSP20 (WT), or GFP fused to an HSP20 construct in which the PKA phosphorylation site was mutated to an alanine (S16A-HSP20) (MUT). The cells were plated on a silicone rubber substrata in the presence of serum for 48 hours. The plates were then placed on the stage of a Zeiss Inverted Fluorescence Microscope with DeltaVision image acquisition and deconvolution software (Applied Precision, Issaquah, Wash.). The DeltaVision software was configured to eight different cells (x and y axis) on each plate with 7 z-axis images taken at […] intervals. Fluorescent and phase contrast images were obtained such that the cells and silicone membrane were imaged in close succession. During the scanning process, the z-axis of each cell was monitored to assure that the imaging stacks were maintained at the appropriate level as the cells relaxed on the silicone membrane. Baseline images were acquired for one hour. The cells were then treated with […] dibutyryl cAMP (10 ΦM) for 0 minutes, 30 minutes, 60 minutes, or 90 minutes, and the results are illustrated in FIG. 1. […]"}, "[2]": {"tested_on": "PKG transfected rat aortic smooth muscle cells", "assay": "Wrinkle assay: PKG transfected rat aortic smooth muscle cells on silicone substrata", "format": "cell-based", "conditions": "10 uM for 30 minutes", "procedure": "Rat aortic smooth muscle cells that are multiply passaged or that stably express PKG were cultured on a silicone substrata in the presence of serum. The cells were imaged with phase contrast microscopy (10× magnification). […] To determine if the wrinkles were reversible, PKG transfected cells were treated with dibutyryl cAMP (10 uM) for 30 minutes."}, "Mesangial cells [3]": {"tested_on": "Mesangial cells", "assay": "Actin filament staining (rhodamine phalloidin) of transfected mesangial cells", "format": "cell-based", "conditions": "10 μM for 30 minutes; cells transfected with EGFP alone or S16A-HSP20", "source_text": "Transfected mesangial cells were fixed and the actin filaments were stained with fluorescent-labeled phalloidin."}, "[4]": {"tested_on": "bovine carotid artery smooth muscle", "assay": "Muscle bath: serotonin pre-contracted strips of bovine carotid artery, denuded of endothelium", "conditions": "cumulative doses added every 10 minutes; n=5", "procedure": "Transverse strips of bovine carotid artery smooth muscle, denuded of endothelium, were suspended in a muscle bath containing bicarbonate buffer (120 mM NaCl, 4.7 mM KCl, 1.0 mM MgSO4, 1.0 mM NaH2PO4, 10 mM glucose, 1.5 mM CaCl2, and 25 mM […], pH 7.4), equilibrated with 95% O2/5% CO2, at 37° C. at one gram of tension for 2 hours. The muscles were pre-contracted with serotonin ([…] for 10 minutes) and cumulative doses of FITC-phosphoHSP20-TAT, FITC-scrambled phosphoHSP20-TAT (FITC-NH2-β[…]*LWALGRPLA-COOH, open circles) (SEQ ID NO:305), or FITC-TAT (FITC-NH2-β[…], closed triangles) (SEQ ID NO:306) were added every 10 minutes. The force is depicted as a percentage of the maximal serotonin contraction (n=5, *=p<0.05 compared to 0 peptide added). Representative strips were fixed in 4% paraformaldehyde and examined under fluorescence microscopy (40× magnification)."}, "[5]": {"tested_on": "Rat aortic smooth muscle cells", "assay": "LPA-induced actin fiber formation, phalloidin staining and confocal microscopy", "format": "cell-based", "procedure": "Rat aortic smooth muscle cells were treated with lyophosphatidic acid (LPA) in the presence and absence of FITC-TAT-pHSP20 (FITC-NH2-β[…]*APLPGLK-COOH, 50 uM) (SEQ ID NO:307) Lysophosphatidic acid (LPA) is a substance which promotes actin fiber formation.\nThe cells were fixed and stained with phalloidin and images were obtained with confocal microscopy. […] These studies confirm that HSP20 has a direct role in modulating actin fiber formation."}, "[6]": {"tested_on": "Bovine aortic endothelial cells", "assay": "Focal adhesion disassembly, interference reflection microscopy", "format": "cell-based", "conditions": "HSP20 peptides 10 uM for 30 minutes; serum starved one hour", "procedure": "Bovine aortic endothelial cells were plated on glass coverslips (80K-100K cells) in DMEM plus 10% FBS over night (24 wells plate). The cells were serum starved (no serum) for one hour and incubated in the presence of the peptide analogues of HSP20 [NH2-βAYARRAAARQARAWLRRAS*APLPGLK-COOH-pHSP20 (10 uM) (SEQ ID NO:307) or scrambled analogues of HSP20 [NH2-βAYARRAAARQARAPRKS*LWALGRPLA-COOH-scHSP20 (10 uM)] (SEQ ID NO:308) for 30 minutes. The cells were fixed with 3% glutaraldehyde and the number of focal adhesions was detected with interference reflection microscopy. The Hep I peptide was used as a positive control. This peptide binds to the heparin binding site of thrombospondin in induces focal adhesion disassembly. […] The results are illustrated in FIG. 7."}, "A10 cells": {"tested_on": "A10 cells", "assay": "Serum-induced proliferation, cell counts", "format": "cell-based", "conditions": "50 μM in 10% FBS; 24 hours; serum starved 3 days beforehand", "procedure": "A10 cells were serum starved for 3 days. The cells were then treated with media containing 10% fetal bovine serum, PTD-pHSP20 (NH2-βAYARRAAARQARAWLRRAS*APLPGLK-COOH (SEQ ID NO:307), or PTD-scrambled-pHSP20 (NH2-βAYARRAAARQARAPRKS*LWALGRPLA-COOH (SEQ ID NO:308) (50 μM). After 24 hours cell counts were performed. The number of cells per well in the serum starved plates averaged […] (+/−7.4) compared to 276+/−6.1 in wells containing 10% fetal bovine serum (FBS). In the presence of FBS, the phosphopeptide analogues of HSP20 containing a transduction domain inhibited of smooth muscle proliferation, 149+/−14.6 compared to transduction of the scrambled phosphopeptide analogue of HSP20 (242.3+/−15.3 cells/well). The results of these experiments are illustrated in FIG. 9."}, "Mesangial cells [7]": {"tested_on": "Mesangial cells", "assay": "Wrinkle assay: mesangial cells on silicone substrata treated with phosphopeptide", "format": "cell-based", "conditions": "50 μM peptide; plated 48 hours in serum; phase contrast microscopy; n=10", "procedure": "Mesangial cells were plated on a silicone substrata in the presence of serum and after 48 hours the cells were treated with the FITC-TAT-HSP20 phosphopeptide (50 μM). The number of wrinkles under the cells was determined at the time points indicated using phase contrast microscopy (n=10, *=p<0.05 compared to time 0). Results of this Experiment are illustrated in FIG. 2."}}, "note": "Non-standard residues stand in square brackets, D forms with d. No end group written: not given here. *: point of attachment. FITC = O=C1OC2(c3ccc(O)cc3Oc3cc(O)ccc32)c2ccc(NC(=S)*)cc21; Fmoc = O=C(OCC1c2ccccc2-c2ccccc21)*; pS = N[C@@H](COP(=O)(O)O)C(=O)O; βAla = NCCC(=O)O"}
{"compound": "RRRRRRApSAPLP (Fmoc-RRRRRRA[pS]APLP)", "values": [{"measurement": "speed and duration of relaxation compared with the longer peptides", "setting": "rabbit aorta", "result": "relaxation was faster and the muscles remained in a relaxed state for longer"}, {"measurement": "relaxation and inhibition of spasm", "setting": "rabbit aorta", "result": "rapid and complete relaxation and inhibition of spasm"}]}
{"compound": "CCCC(=O)Nc1ncnc2c1ncn2[C@@H]1O[C@@H]2COP(=O)(O)O[C@H]2[C@H]1OC(=O)CCC", "note": "[dibutyryl cAMP]", "values": [{"measurement": "wrinkles under the cells (relaxation)", "setting": "Mesangial cells [1]; cells expressing S16A-HSP20 (MUT)", "result": "did not relax"}, {"measurement": "wrinkles under the cells (relaxation)", "setting": "Mesangial cells [1]; control cells expressing GFP", "result": "relaxed over time"}, {"measurement": "wrinkle formation", "setting": "[2]", "result": "decrease in wrinkle formation"}, {"measurement": "central actin stress fibers", "setting": "Mesangial cells [3]", "result": "loss of central actin stress fibers in EGFP but not S16A-HSP20 cells"}]}
{"compound": "FITC-NH2-βAGGGGYGRKKRRQRRRPRKS*LWALGRPLA-COOH ({FITC}-[βAla]GGGGYGRKKRRQRRRPRK[pS]LWALGRPLA-OH) [FITC-scrambled phosphoHSP20-TAT]", "values": [{"measurement": "contractile force as percentage of the maximal serotonin contraction", "setting": "[4]", "result": "no significant effect"}]}
{"compound": "Lysophosphatidic acid [LPA, reference compound]", "values": [{"measurement": "actin stress fiber formation", "setting": "[5]; LPA alone", "result": "robust actin stress fiber formation"}]}
{"compound": "NH2-βAYARRAAARQARAPRKS*LWALGRPLA-COOH (AYARRAAARQARAPRKSLWALGRPLA; HELM PEPTIDE1{[bAla].Y.A.R.R.A.A.A.R.Q.A.R.A.P.R.K.[O=C([C@H](COP(=O)(O)O)N[*:1])[*:2]].L.W.A.L.G.R.P.L.A}$$$$V2.0; SMILES CC(C)C[C@H](NC(=O)[C@H](C)NC(=O)[C@H](Cc1c[nH]c2ccccc12)NC(=O)[C@H](CC(C)C)NC(=O)[C@H](COP(=O)(O)O)NC(=O)[C@H](CCCCN)NC(=O)[C@H](CCCNC(=N)N)NC(=O)[C@@H]1CCCN1C(=O)[C@H](C)NC(=O)[C@H](CCCNC(=N)N)NC(=O)[C@H](C)NC(=O)[C@H](CCC(N)=O)NC(=O)[C@H](CCCNC(=N)N)NC(=O)[C@H](C)NC(=O)[C@H](C)NC(=O)[C@H](C)NC(=O)[C@H](CCCNC(=N)N)NC(=O)[C@H](CCCNC(=N)N)NC(=O)[C@H](C)NC(=O)[C@H](Cc1ccc(O)cc1)NC(=O)CCN)C(=O)NCC(=O)N[C@@H](CCCNC(=N)N)C(=O)N1CCC[C@H]1C(=O)N[C@@H](CC(C)C)C(=O)N[C@@H](C)C(=O)O) [PTD-scrambled-pHSP20, Scrambled analogue of the HSP20 phosphopeptide with PTD, control, reference compound]", "values": [{"measurement": "focal adhesion disassembly (number of focal adhesions)", "setting": "[6]", "result": "no significant effect"}, {"measurement": "number of cells per well", "setting": "A10 cells", "result": "242.3+/−15.3 cells/well"}]}
{"compound": "FITC-NH2-βAGGGGYGRKKRRQRRR ({FITC}-[βAla]GGGGYGRKKRRQRRR) [FITC-TAT, FITC-labelled TAT transduction domain alone, control]", "values": [{"measurement": "contractile force as percentage of the maximal serotonin contraction", "setting": "[4]", "result": "no significant effect"}]}
{"compound": "RRRRWLRRApSAPLP (Fmoc-RRRRWLRRA[pS]APLP)", "values": [{"measurement": "speed and duration of relaxation compared with the longer peptides", "setting": "rabbit aorta", "result": "relaxation was faster and the muscles remained in a relaxed state for longer"}, {"measurement": "relaxation and inhibition of spasm", "setting": "rabbit aorta", "result": "rapid and complete relaxation and inhibition of spasm"}]}
{"compound": "NH2-βAGGGGYGRKKRRQRRRWLRRAS*APLPGLK-COOH ([βAla]GGGGYGRKKRRQRRRWLRRA[pS]APLPGLK-OH; not fully specified (N-terminus); printed as NH2-βAGGGGYGRKKRRQRRRWLRRAS*APLPGLK-COOH; also: FITC label, position not given here) [FITC-TAT-HSP20]", "values": [{"measurement": "number of wrinkles under the cells (relaxation of the cells)", "setting": "Mesangial cells [7]", "result": "time dependent loss of wrinkles"}, {"measurement": "contractile force as percentage of the maximal serotonin contraction", "setting": "[4]", "result": "dose dependent decrease"}, {"measurement": "central actin stress fibers", "setting": "[5]; LPA in the presence of peptide, 50 uM", "result": "loss of central actin stress fibers"}]}
